# “And” between values parts separate entries of the source, which are not always exact repeats. Equal values may be shown once.
# Biological target: Transient receptor potential cation channel subfamily V member 1 (Homo sapiens, UniProt Q8NER1)
# Test: Antagonist activity at human TRPV1 assessed as inhibition of capsaicin-induced calcium influx in HEK293 cells
# Assay type: functional, cell-based
# Conditions: not given
# Sequence of Transient receptor potential cation channel subfamily V member 1 (Homo sapiens, UniProt Q8NER1) (Q8NER1 whole entry): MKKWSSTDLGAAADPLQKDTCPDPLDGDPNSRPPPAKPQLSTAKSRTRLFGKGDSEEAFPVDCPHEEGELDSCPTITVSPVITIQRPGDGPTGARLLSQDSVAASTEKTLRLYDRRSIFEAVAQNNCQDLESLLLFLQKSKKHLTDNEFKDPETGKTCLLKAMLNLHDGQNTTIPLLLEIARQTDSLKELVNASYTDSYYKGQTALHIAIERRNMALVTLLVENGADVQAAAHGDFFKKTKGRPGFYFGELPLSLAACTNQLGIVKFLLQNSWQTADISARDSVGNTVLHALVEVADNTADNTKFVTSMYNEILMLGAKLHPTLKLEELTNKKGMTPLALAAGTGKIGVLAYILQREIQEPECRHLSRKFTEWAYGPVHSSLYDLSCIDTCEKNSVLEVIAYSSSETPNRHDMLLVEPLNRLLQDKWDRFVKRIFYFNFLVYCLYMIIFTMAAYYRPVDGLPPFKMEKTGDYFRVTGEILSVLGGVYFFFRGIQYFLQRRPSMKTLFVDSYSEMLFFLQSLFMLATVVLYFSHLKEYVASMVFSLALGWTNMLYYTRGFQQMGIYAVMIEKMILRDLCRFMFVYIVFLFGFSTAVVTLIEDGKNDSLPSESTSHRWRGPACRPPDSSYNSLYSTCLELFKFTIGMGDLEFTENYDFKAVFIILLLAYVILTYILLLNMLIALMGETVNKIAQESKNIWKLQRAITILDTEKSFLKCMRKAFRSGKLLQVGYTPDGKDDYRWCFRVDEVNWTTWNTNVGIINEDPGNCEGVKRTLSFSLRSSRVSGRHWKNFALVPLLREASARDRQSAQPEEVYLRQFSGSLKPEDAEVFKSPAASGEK
row,SMILES,IC50
1,O=C(Nc1ccc(I)cc1)c1ccc(C(=O)C(F)(F)F)cc1,790 nM
2,CC(=O)c1ccc(C(=O)Nc2ccc(I)cc2)cc1,> 10000 nM
3,O=C(Nc1ccc(I)cc1)c1ccc(OC(F)(F)F)cc1,280 nM
4,O=C(Nc1ccc(I)cc1)c1cccc(C(F)(F)F)c1,> 10000 nM
5,O=C(Nc1ccc(I)cc1)c1ccccc1C(F)(F)F,> 10000 nM
6,CC(C)(C)c1ccc(NC(=O)c2ccc(OC(F)(F)F)cc2)cc1,120 nM
7,CC(C)(C)c1ccc(NC(=O)c2ccc(C(F)(F)F)cc2)cc1,220 nM
8,O=C(Nc1ccc(C(F)(F)F)cc1)c1ccc(OC(F)(F)F)cc1,220 nM
9,O=C(NCCN1CCCc2ccccc21)c1ccc(OC(F)(F)F)cc1,4600 nM
10,O=C(NCCC1CCCc2ccccc21)c1ccc(OC(F)(F)F)cc1 (configuration not stated),5400 nM
11,O=C(Nc1ccc2c(c1)CCC2)c1ccc(OC(F)(F)F)cc1,210 nM
12,CC(C)(C)c1cc(NC(=O)c2ccc(OC(F)(F)F)cc2)cc(C(C)(C)C)c1,> 10000 nM
13,O=C(NCCN1CCCc2ccc(O)cc21)c1ccc(OC(F)(F)F)cc1,960 nM
14,O=C(Nc1ccc(C2CCCCC2)cc1)c1ccc(OC(F)(F)F)cc1,> 10000 nM
15,O=C(Nc1ccc(-c2ccccc2)cc1)c1ccc(OC(F)(F)F)cc1,> 10000 nM
16,O=C(Nc1ccc(I)cc1)Nc1ccc(C(F)(F)F)cc1,> 10000 nM
17,CC(C)(C)c1ccc(CC(=O)c2ccc(C(F)(F)F)cc2)cc1,> 10000 nM
18,CC(C)(C)c1ccc(C(N)C(=O)c2ccc(OC(F)(F)F)cc2)cc1 (configuration not stated),> 10000 nM
19,CN(C(=O)c1ccc(OC(F)(F)F)cc1)c1ccc(C(C)(C)C)cc1,> 10000 nM

row,SMILES,IC50
1,O=C(Nc1ccc(C(F)(F)F)cc1)c1ccc(I)cc1,> 10000 nM
2,CC(C)(C)c1ccc(-n2nnc(-c3ccc(C(F)(F)F)cc3)n2)cc1,> 10000 nM
3,CC(C)(C)c1ccc(-c2cc3cc(C(C)(C)C)ccc3[nH]2)cc1,> 10000 nM
4,CC(C)(C)c1ccc2[nH]c(-c3ccc(OC(F)(F)C(F)F)cc3)nc2c1,477 nM
5,CC(C)(C)c1ccc(-c2nc3cc(OC(F)(F)F)ccc3[nH]2)cc1,1420 nM
6,FC(F)(F)c1ccc(-c2ncc(-c3ccc(Br)cc3)[nH]2)cc1,6000 nM
7,FC(F)C(F)(F)Oc1ccc(-c2nc3cc(Br)ccc3[nH]2)cc1,380 nM
8,O=C(NCCC1CCCc2ccc(O)cc21)c1ccc(OC(F)(F)F)cc1 (configuration not stated),1350 nM
9,CC(C)(C)c1ccc(NC(=O)c2ccc(OC(F)(F)C(F)F)cc2)cc1,70 nM
10,CC(C)(C)c1ccc(NC(=O)c2ccc(SC(F)(F)F)cc2)cc1,253 nM
11,CC(C)(C)c1ccc(/C=C(\C#N)c2ccc(C(F)(F)F)cc2)cc1,> 10000 nM
12,CC(C)(C)c1ccc(NC(=O)c2ccc(OCC(F)(F)F)cc2)cc1,> 10000 nM
13,CC(Cc1cccc2ccc(O)cc12)NC(=O)c1ccc(OC(F)(F)F)cc1 (configuration not stated),81 nM
14,CS(=O)(=O)c1ccc(C(=O)Nc2ccc(I)cc2)cc1,> 10000 nM
15,O=C(Nc1ccc(I)cc1)c1ccc(C(F)(F)F)cc1,330 nM
16,CCC(c1ccccn1)c1c(Cl)c(Cl)cc2[nH]c(=O)c(=O)[nH]c12 (configuration not stated),1400 nM
17,Cn1c2c(c3cc(O)ccc31)C(CNC(=O)c1ccc(OC(F)(F)F)cc1)CCC2 (configuration not stated),23 nM
18,CC(C)(C)C1CCC(c2nc3ccc(OC(F)(F)F)cc3[nH]2)CC1 (configuration not stated),4970 nM
19,CC(CNC(=O)c1ccc(OC(F)(F)F)cc1)c1ccc(O)c2ccc(O)cc12 (racemic),14 nM

# The remaining lines, values ahead:
row,IC50,SMILES
1,3720 nM,O=C(NCCc1c[nH]c2ccc(Cl)cc12)c1ccc(OC(F)(F)F)cc1
2,> 10000 nM,CC(C)(C)c1ccc2[nH]cc(CCNC(=O)c3ccc(OC(F)(F)F)cc3)c2c1
3,> 10000 nM,COc1ccc2[nH]cc(CCNC(=O)c3ccc(OCCN(C)C)cc3)c2c1
4,3940 nM,COc1ccc2[nH]cc(CCNC(=O)c3ccc(-c4ccccc4)nc3)c2c1
5,3400 nM,COc1ccc2[nH]cc(CCNC(=O)c3ccc(OCC(F)(F)F)nc3)c2c1
6,400 nM,COc1ccc2[nH]cc(C(C)CNC(=O)c3ccc(OC(F)(F)F)cc3)c2c1 (configuration not stated)
7,550 nM,CC(CNC(=O)c1ccc(OC(F)(F)F)cc1)c1c[nH]c2ccc(O)cc12 (configuration not stated)
8,5070 nM,COc1ccc2[nH]c(C)c(C(C)CNC(=O)c3ccc(OC(F)(F)F)cc3)c2c1 (configuration not stated)
9,1890 nM,COc1ccc2[nH]cc(CCNC(=O)c3ccc(Oc4ccccc4)cc3)c2c1
10,3280 nM,Cc1[nH]c2ccc(O)cc2c1C(C)CNC(=O)c1ccc(OC(F)(F)F)cc1 (configuration not stated)
11,200 nM,O=C(NCC1CCCc2[nH]c3ccc(O)cc3c21)c1ccc(OC(F)(F)F)cc1 (configuration not stated)
12,2600 nM,O=C(NCCc1cccc2ccccc12)c1ccc(OC(F)(F)F)cc1
13,776 nM,O=C(NCCc1ccccc1Cl)c1ccc(OC(F)(F)F)cc1
14,1160 nM,COc1ccc2[nH]cc(CCNC(=O)c3ccc(C4CCCCC4)cc3)c2c1
15,> 10000 nM,O=C(NCCc1ccnc2ccccc12)c1ccc(OC(F)(F)F)cc1
16,7300 nM,O=C(NCCn1ccc2ccccc21)c1ccc(OC(F)(F)F)cc1
17,> 10000 nM,COc1ccc2c(OC)ccc(CCNC(=O)c3ccc(OC(F)(F)F)cc3)c2c1
18,> 10000 nM,COc1ccc2nccc(CCNC(=O)c3ccc(OC(F)(F)F)cc3)c2c1
19,4650 nM,COc1ccc2c(c1)C(CCNC(=O)c1ccc(OC(F)(F)F)cc1)CCC2 (configuration not stated)
20,150 nM,O=C(NCCc1cccc2ccc(O)cc12)c1ccc(OC(F)(F)F)cc1
21,76 nM,O=C(NCCc1ccc(O)c2ccc(O)cc12)c1ccc(OC(F)(F)F)cc1
22,1230 nM,O=C(NCCc1ccnc2ccc(O)cc12)c1ccc(OC(F)(F)F)cc1
23,3100 nM,COc1ccc2cccc(CC(C)NC(=O)c3ccc(OC(F)(F)F)cc3)c2c1 (configuration not stated)
24,> 10000 nM,COc1ccc2nccc(CC(C)NC(=O)c3ccc(OC(F)(F)F)cc3)c2c1 (configuration not stated)

row,IC50,SMILES
1,740 nM,CC(Cc1ccnc2ccc(O)cc12)NC(=O)c1ccc(OC(F)(F)F)cc1 (configuration not stated)
2,7350 nM,O=C(NCCc1c[nH]c2ccccc12)c1ccc(OC(F)(F)F)cc1
3,> 10000 nM,Cn1cc(CCNC(=O)c2ccc(C(F)(F)F)cc2)c2ccccc21
4,1310 nM,COc1ccc2[nH]cc(CCNC(=O)c3ccc(OC(F)(F)F)cc3)c2c1
5,2620 nM,O=C(NCCc1c[nH]c2ccc(F)cc12)c1ccc(OC(F)(F)F)cc1
6,> 10000 nM and 1930 nM,O=C(NCCc1cccc(Cl)c1)c1ccc(OC(F)(F)F)cc1
7,1640 nM,COc1ccc2[nH]cc(CCNC(=O)c3ccc(OC(F)(F)C(F)F)cc3)c2c1
8,1730 nM,O=C(NCCc1c[nH]c2ccc(O)cc12)c1ccc(OC(F)(F)F)cc1
9,205 nM,O=C(NCCc1c(Cl)cccc1Cl)c1ccc(OC(F)(F)F)cc1
10,2560 nM,O=C(NCCc1ccc(Cl)cc1Cl)c1ccc(OC(F)(F)F)cc1
11,3700 nM,O=C(NCCc1ccc(Cl)c(Cl)c1)c1ccc(OC(F)(F)F)cc1
12,3490 nM,O=C(NCCc1ccccc1F)c1ccc(OC(F)(F)F)cc1
13,4230 nM,O=C(NCCc1c[nH]c2ccccc12)c1ccc(C(F)(F)F)cc1
14,490 nM,COc1ccc2c(c1)c1c(n2C)CCCC1CNC(=O)c1ccc(OC(F)(F)F)cc1 (configuration not stated)
15,6700 nM,O=C(NCCc1cccc2ccncc12)c1ccc(OC(F)(F)F)cc1
16,3430 nM,COc1ccc2[nH]cc(CCNC(=O)c3ccc(CC(C)C)cc3)c2c1
17,> 10000 nM,COc1ccc2[nH]cc(CCNC(=O)c3ccc(-c4ccncc4)cc3)c2c1
18,> 10000 nM,COc1ccc2[nH]cc(CCNC(=O)c3ccc(C(F)(F)F)nc3)c2c1
19,2090 nM,COc1ccc2[nH]cc(CCNC(=O)c3ccc(C(F)(F)F)cc3)c2c1
20,1400 nM,COc1ccc2cccc(CCNC(=O)c3ccc(OC(F)(F)F)cc3)c2c1
21,3550 nM,COc1ccc2ccn(CCNC(=O)c3ccc(OC(F)(F)F)cc3)c2c1
22,370 nM,COc1ccc2[nH]cc(CCNC(=O)c3ccc(-c4ccccc4)cc3)c2c1
23,> 10000 nM,COc1ccc2c(c1)N(CCNC(=O)c1ccc(OC(F)(F)F)cc1)CCC2

# Same assay, conditions: read-out: pA2 (converted)
row,SMILES,Kb
1,COc1ccc2[nH]cc(C(C)CNC(=O)c3ccc(OC(F)(F)F)cc3)c2c1 (configuration not stated),145 nM

# Biological target: Transient receptor potential cation channel subfamily V member 1 (Rattus norvegicus, UniProt O35433)
# Test: Antagonist activity at rat TRPV1 assessed as inhibition of capsaicin-induced calcium mobilization
# Assay type: functional
# Conditions: not given
# Sequence of Transient receptor potential cation channel subfamily V member 1 (Rattus norvegicus, UniProt O35433) (O35433 whole entry): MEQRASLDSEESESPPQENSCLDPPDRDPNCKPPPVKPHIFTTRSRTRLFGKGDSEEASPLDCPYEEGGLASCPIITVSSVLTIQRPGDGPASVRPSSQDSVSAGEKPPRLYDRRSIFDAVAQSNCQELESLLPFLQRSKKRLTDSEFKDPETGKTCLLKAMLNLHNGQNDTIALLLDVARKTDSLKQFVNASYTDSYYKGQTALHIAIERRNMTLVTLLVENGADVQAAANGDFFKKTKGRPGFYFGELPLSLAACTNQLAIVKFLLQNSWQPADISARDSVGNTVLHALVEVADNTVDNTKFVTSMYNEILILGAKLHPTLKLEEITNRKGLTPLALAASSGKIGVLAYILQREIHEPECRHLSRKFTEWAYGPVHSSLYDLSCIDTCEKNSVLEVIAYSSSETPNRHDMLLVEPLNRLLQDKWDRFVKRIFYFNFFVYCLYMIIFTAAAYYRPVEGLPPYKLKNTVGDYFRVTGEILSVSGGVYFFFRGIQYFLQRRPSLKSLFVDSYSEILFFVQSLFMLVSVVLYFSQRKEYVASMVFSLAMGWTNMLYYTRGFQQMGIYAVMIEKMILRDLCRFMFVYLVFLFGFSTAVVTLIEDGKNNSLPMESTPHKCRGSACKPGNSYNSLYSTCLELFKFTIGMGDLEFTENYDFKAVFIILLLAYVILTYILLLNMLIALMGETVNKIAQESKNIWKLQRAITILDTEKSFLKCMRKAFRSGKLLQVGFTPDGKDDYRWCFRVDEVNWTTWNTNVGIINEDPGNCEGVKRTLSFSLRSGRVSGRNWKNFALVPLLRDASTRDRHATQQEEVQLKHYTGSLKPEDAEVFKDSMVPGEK
row,SMILES,IC50
1,COc1ccc2[nH]cc(C(C)CNC(=O)c3ccc(OC(F)(F)F)cc3)c2c1 (configuration not stated),5200 nM
2,CC(C)(C)c1ccc(NC(=O)c2ccc(OC(F)(F)C(F)F)cc2)cc1,260 nM
3,Cn1c2c(c3cc(O)ccc31)C(CNC(=O)c1ccc(OC(F)(F)F)cc1)CCC2 (configuration not stated),410 nM
4,CC(CNC(=O)c1ccc(OC(F)(F)F)cc1)c1ccc(O)c2ccc(O)cc12 (racemic),44 nM

# Species: Mus musculus
# Test: Effect on capsaicin-induced licking in mouse
# Assay type: functional
# Conditions: not given
row,SMILES,ED50
1,CC(C)(C)c1ccc(NC(=O)c2ccc(OC(F)(F)C(F)F)cc2)cc1,3.8 mg/kg

# Species: Mus musculus
# Test: Effect on capsaicin-induced hypothermia in mouse
# Assay type: functional
# Conditions: not given
row,SMILES,ED50
1,CC(C)(C)c1ccc(NC(=O)c2ccc(OC(F)(F)C(F)F)cc2)cc1,4.5 mg/kg

# Species: Rattus norvegicus
# Test: Effect on capsaicin-induced hypothermia in rat
# Assay type: functional
# Conditions: not given
row,SMILES,ED50
1,CC(C)(C)c1ccc(NC(=O)c2ccc(OC(F)(F)C(F)F)cc2)cc1,4.2 mg/kg

# Test system: Rattus norvegicus
# Test: Reduction of rectal temperature in rat CCI model at 100 mg/kg, ip
# Assay type: functional
# Conditions: route intraperitoneal
row,SMILES,inhibition in vivo at 100 mg/kg
1,CC(C)(C)c1ccc(NC(=O)c2ccc(OC(F)(F)C(F)F)cc2)cc1,59%

# Test system: Mus musculus
# Test: Reduction of rectal temperature in mouse CCI model at 100 mg/kg, ip
# Assay type: functional
# Conditions: route intraperitoneal
row,SMILES,inhibition in vivo at 100 mg/kg
1,CC(C)(C)c1ccc(NC(=O)c2ccc(OC(F)(F)C(F)F)cc2)cc1,59%

# Test system: Rattus norvegicus
# Test: Effect on carrageenan-induced thermal hyperalgesia in rat at 30 mg/kg, ip
# Assay type: functional
# Conditions: route intraperitoneal
row,SMILES,inhibition in vivo at 30 mg/kg
1,CC(C)(C)c1ccc(NC(=O)c2ccc(OC(F)(F)C(F)F)cc2)cc1,52%

# Test system: Mus musculus
# Test: Effect on carrageenan-induced thermal hyperalgesia in mouse at 30 mg/kg, ip
# Assay type: functional
# Conditions: route intraperitoneal
row,SMILES,inhibition in vivo at 30 mg/kg
1,CC(C)(C)c1ccc(NC(=O)c2ccc(OC(F)(F)C(F)F)cc2)cc1,52%

# Test system: not listed separately
# Test: Half life in iv dosed rat
# Assay type: ADME, organism-based
# Conditions: in vivo
row,SMILES,half-life
1,Cn1c2c(c3cc(O)ccc31)C(CNC(=O)c1ccc(OC(F)(F)F)cc1)CCC2 (configuration not stated),2.1 h

# Test system: not listed separately
# Test: Oral bioavailability in rat administered through PEG400
# Assay type: ADME, organism-based
# Conditions: in vivo
row,SMILES,bioavailability
1,Cn1c2c(c3cc(O)ccc31)C(CNC(=O)c1ccc(OC(F)(F)F)cc1)CCC2 (configuration not stated),30.2%

# Test system: not listed separately
# Test: Half life in po dosed rat administered through PEG400
# Assay type: ADME, organism-based
# Conditions: in vivo
row,SMILES,half-life
1,Cn1c2c(c3cc(O)ccc31)C(CNC(=O)c1ccc(OC(F)(F)F)cc1)CCC2 (configuration not stated),2.1 h

# Test system: not listed separately
# Test: Oral bioavailability in rat administered through 0.1% MC solution
# Assay type: ADME, organism-based
# Conditions: in vivo
row,SMILES,bioavailability
1,Cn1c2c(c3cc(O)ccc31)C(CNC(=O)c1ccc(OC(F)(F)F)cc1)CCC2 (configuration not stated),0.7%

# Test system: not listed separately
# Test: Half life in po dosed rat administered through 0.1% MC solution
# Assay type: ADME, organism-based
# Conditions: in vivo
row,SMILES,half-life
1,Cn1c2c(c3cc(O)ccc31)C(CNC(=O)c1ccc(OC(F)(F)F)cc1)CCC2 (configuration not stated),1.2 h
